Source: patent US20090156582A1, “Pyrazole Compound” (priority 2005, published 2009)

Experiments:
[1] = tested on: nerve cell prepared from cerebral cortex of fetus of SD rat; experiment: Measurement of nerve cell death suppressive activity; format: cell-based; conditions: rat cerebral cortex nerve cells, LY294002 50 μM final concentration, 24 hr, viable cell number by Cell Titer Glo; read-out: IC50 value (concentration of the test compound needed for 50% inhibition of nerve cell death)
Procedure: The cerebral cortex was taken from fetus of TP-14 pregnant SD rat (CLEA Japan, Inc.), and nerve cell was prepared using nerve cell culture system (SUMITOMO BAKELITE). The cerebral cortex was placed in enzymatic solution of cell dispersion solution kit (SUMITOMO BAKELITE), and incubated at 37° C. for 30 min. The cells were suspended by pipetting, and collected by centrifugation at 1000 rpm for 5 min. The supernatant was removed, and cell dispersion solution (SUMITOMO BAKELITE) was added. The cells were suspended by pipetting. The cell suspension was placed on removing solution (SUMITOMO BAKELITE), and the cells were collected by centrifugation at 1000 rpm for 5 min. The supernatant was removed, and the cells were suspended in nerve cell culture medium (SUMITOMO BAKELITE). 100 μl of the suspension was seeded on a poly D lysine•laminin 96 well plate (Becton, Dickinson and Company) at 1×10^5 cells/well. Then, the plate was cultured in a carbon dioxide gas incubator at 37° C. for 4 days. A test compound (50 μl) was added on the 96 well plate, and 50 μL/well of LY294002 was added at 50 μM of the final concentration. Then, the plate was cultured in a carbon dioxide gas incubator for 24 hr. The medium (100 μl) was sampled, and 100 μl of Cell Titer Glo solution (Promega) was added to count the viable cell number. […]

[2] = target: T1, recombinant GSK3β enzyme (human GSK3β) (Homo sapiens, UniProt P49841); experiment: Measurement of GSK3β inhibitory activity; format: biochemical; conditions: glycogen synthase peptide substrate, Kinase Glo luminescence, read-out: IC50 (concentration of test compound needed for 50% inhibition of luminescent intensity), GSK3β inhibitory activity
T1 construct: FLAG (N); made in house; host or cells: Sf-21 insect cells, recombinant baculovirus (pFASTBAC1 / BAC-TO-BAC)
Method in brief: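 FLAG-purified human GSK3β expressed in baculovirus-infected Sf-21 cells; reaction with 2.5 μM ATP (stock solution) at room temperature, 30 min. Residual ATP measured by Kinase-Glo luminescence; IC50 as concentration inhibiting 50% of luminescent intensity.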

[3] = tested on: H4IIE-C3 cells; experiment: Measurement of sugar release suppressive action using cultured hepatocyte; format: cell-based; conditions: Rattus norvegicus, H4IIEC3, 3 h, test compound 10 μM, Dexamethasone 500 nM and 8CPT-cAMP 0.1 mM, GSK3β inhibitor free group is 100%, read-out: sugar release suppressive activity (released glucose content, relative value)
Procedure: H4IIE-C3 cells (from rat liver) were seeded on 24 well or 96 well collagen coated plate (manufactured by Falcon), and cultured in Dulbecco's Modified Eagle Medium (DMEM: manufactured by GIBCO) containing 10% FBS, 25 mM Glucose until the cells became sub-confluent. Then, the cells were starvation treated with DMEM containing 0% FBS and 5.6 mM glucose. The medium was exchanged to DMEM containing test compound adjusted to 10 μM and sugar production stimulant (Dexamethasone (500 nM), 8CPT-cAMP (0.1 mM)), and the cells were pretreated for 5 hr. After washing with PBS, the cells were cultured in Phenol Red-free, Glucose-free DMEM containing the test compound and sugar production stimulant for 3 hr, and the glucose content released in the medium was measured. A glucose measurement kit (A-22189) manufactured by Molecular Probes was used for the glucose measurement. The sugar release suppressive activity is shown in a relative value when the released glucose content of a GSK3β inhibitor free group is 100%.

T1 sequence (P49841 whole entry): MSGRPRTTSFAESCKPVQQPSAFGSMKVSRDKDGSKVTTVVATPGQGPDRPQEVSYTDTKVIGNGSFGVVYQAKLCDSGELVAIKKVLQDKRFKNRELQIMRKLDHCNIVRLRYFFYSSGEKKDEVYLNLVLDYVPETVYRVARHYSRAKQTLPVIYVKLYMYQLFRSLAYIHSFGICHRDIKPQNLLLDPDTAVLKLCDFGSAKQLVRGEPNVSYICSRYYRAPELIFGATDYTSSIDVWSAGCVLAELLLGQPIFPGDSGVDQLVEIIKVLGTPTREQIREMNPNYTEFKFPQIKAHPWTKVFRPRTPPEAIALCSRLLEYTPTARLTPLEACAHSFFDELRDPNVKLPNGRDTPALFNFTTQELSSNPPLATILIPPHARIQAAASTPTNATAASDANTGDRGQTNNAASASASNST

SMILES	IC50 [1] [nM]	IC50 [2] [nM]	activity at 10 µM [3] [%]
O=C(Nc1c[nH]nc1C(=O)NC1CCCC1)c1cnccn1 [Example 79, N-{3-[(cyclopentylamino)carbonyl]-1H-pyrazol-4-yl}pyrazine-2-carboxamide]	70		
O=C(Nc1c[nH]nc1C(=O)Nc1ccccc1)c1cnccn1 [Example 98, N-{3-[(phenylamino)carbonyl]-1H-pyrazol-4-yl}pyrazine-2-carboxamide]	440		
Cc1cccc(C(=O)Nc2c[nH]nc2C(=O)NCCC#N)n1 [Example 387, N-(3-(((2-cyanoethyl)amino)carbonyl)-1H-pyrazol-4-yl)-6-methylpyridine-2-carboxamide]		< 100	69
N#CCCNC(=O)c1n[nH]cc1NC(=O)c1ccco1 [Example 412, N-(2-cyanoethyl)-4-(2-furoylamino)-1H-pyrazole-3-carboxamide]		< 100	74
Cc1cccc(C(=O)Nc2c[nH]nc2C(=O)NCCC#N)c1 [Example 413, N-(2-cyanoethyl)-4-(3-methylbenzoylamino)-1H-pyrazole-3-carboxamide]		< 100	64
N#CCCNC(=O)c1n[nH]cc1NC(=O)c1cccs1 [Example 416, N-(2-cyanoethyl)-4-(2-thienylcarbonylamino)-1H-pyrazole-3-carboxamide]		< 100	62
N#CCCNC(=O)c1n[nH]cc1NC(=O)c1ccccc1 [Example 420, 4-(benzoylamino)-N-(2-cyanoethyl)-1H-pyrazole-3-carboxamide]		< 100	62
Cc1cccc(C(=O)Nc2c[nH]nc2C(=O)NCCOC(C)C)n1 [Example 426, N-(3-(((2-isopropoxyethyl)amino)carbonyl)-1H-pyrazol-4-yl)-6-methylpyridine-2-carboxamide]		< 100	55
Cc1cccc(C(=O)Nc2c[nH]nc2C(=O)NCCCOC(C)C)n1 [Example 430, N-(3-(((3-isopropoxypropyl)amino)carbonyl)-1H-pyrazol-4-yl)-6-methylpyridine-2-carboxamide]			76
CC(C)(C)OCCCNC(=O)c1n[nH]cc1NC(=O)c1ccccn1 [Example 455, N-(3-(((3-tert-butoxypropyl)amino)carbonyl)-1H-pyrazol-4-yl)pyridine-2-carboxamide]			79
CC(C)(CO)CNC(=O)c1n[nH]cc1NC(=O)c1ccccn1 [Example 470, N-(3-(((3-hydroxy-2,2-dimethylpropyl)amino)carbonyl)-1H-pyrazol-4-yl)pyridine-2-carboxamide]			75
Cc1ccc(C(=O)Nc2c[nH]nc2C(=O)NCC(F)(F)F)cn1 [Example 480, 6-methyl-N-(3-(((2,2,2-trifluoroethyl)amino)carbonyl)-1H-pyrazol-4-yl)pyridine-3-carboxamide]			69
O=C(Nc1c[nH]nc1C(=O)NC1CCCC1)c1ccccc1 [compound 070]		< 100	
O=C(Nc1c[nH]nc1C(=O)NC1CCCC1)c1ccc(C(F)(F)F)cc1 [compound 071]		< 100	
COc1ccc(C(=O)Nc2c[nH]nc2C(=O)NC2CCCC2)cc1 [compound 072]		< 100	
O=C(Nc1c[nH]nc1C(=O)NC1CCCC1)c1ccc(F)cc1F [compound 073]		< 100	
CCCN(CCC)S(=O)(=O)c1ccc(C(=O)Nc2c[nH]nc2C(=O)NC2CCCC2)cc1 [compound 074]		299	
CC(=O)Nc1cccc(C(=O)Nc2c[nH]nc2C(=O)NC2CCCC2)c1 [compound 075]		< 100	
O=C(Nc1c[nH]nc1C(=O)NC1CCCC1)c1ccc(OC(F)(F)F)cc1 [compound 076]		< 100	
O=C(Nc1c[nH]nc1C(=O)NC1CCCC1)c1ccc2[nH]ccc2c1 [compound 077]		< 100	
O=C(NC1CCCC1)c1n[nH]cc1NC(=O)c1c[nH]c2ccccc12 [compound 078]		< 100	
O=C(Nc1c[nH]nc1C(=O)NC1CCCC1)c1cnccn1 [compound 079]		< 100	

SMILES	IC50 [1] [nM]	IC50 [2] [nM]	activity at 10 µM [3] [%]
O=C(CC1CCCC1)Nc1c[nH]nc1C(=O)Nc1ccccc1 [compound 081]		106	
O=C(COc1ccccc1)Nc1c[nH]nc1C(=O)Nc1ccccc1 [compound 083]		< 100	
O=C(Nc1ccccc1)c1n[nH]cc1NC(=O)C1CCCCC1 [compound 084]		< 100	
CCOCC(=O)Nc1c[nH]nc1C(=O)Nc1ccccc1 [compound 085]		< 100	
O=C(CCc1ccccc1)Nc1c[nH]nc1C(=O)Nc1ccccc1 [compound 087]		115	
O=C(Cc1c[nH]c2ccccc12)Nc1c[nH]nc1C(=O)Nc1ccccc1 [compound 089]		379	
O=C(Nc1ccccc1)c1n[nH]cc1NC(=O)c1c[nH]c2ccccc12 [compound 097]		< 100	
O=C(Nc1c[nH]nc1C(=O)Nc1ccccc1)c1cnccn1 [compound 098]		< 100	
O=C(CC1CCCC1)Nc1c[nH]nc1C(=O)NCc1ccccc1 [compound 099]		102	
O=C(Nc1c[nH]nc1C(=O)NCc1ccco1)c1ccccc1 [compound 152]		< 100	
O=C(Nc1c[nH]nc1C(=O)NCc1ccco1)c1ccc(C(F)(F)F)cc1 [compound 154]		271	
COc1ccc(C(=O)Nc2c[nH]nc2C(=O)NCc2ccco2)cc1 [compound 155]		< 100	
O=C(Nc1c[nH]nc1C(=O)NCc1ccco1)c1ccc(F)cc1F [compound 156]		< 100	
O=C(Nc1c[nH]nc1C(=O)NCc1ccco1)c1ccc(Oc2ccccc2)cc1 [compound 157]		140	
CC(=O)Nc1cccc(C(=O)Nc2c[nH]nc2C(=O)NCc2ccco2)c1 [compound 159]		< 100	
O=C(Nc1c[nH]nc1C(=O)NCc1ccco1)c1ccc(OC(F)(F)F)cc1 [compound 160]		194	
O=C(Nc1c[nH]nc1C(=O)NCc1ccco1)c1ccc2[nH]ccc2c1 [compound 161]		< 100	
O=C(Nc1c[nH]nc1C(=O)NCc1ccco1)c1cnccn1 [compound 162]		< 100	
CC(C)NC(=O)c1n[nH]cc1NS(=O)(=O)C[C@]12CCC(CC1=O)C2(C)C [compound 197]		109	
CS(=O)(=O)Nc1c[nH]nc1C(=O)NC1CCCC1 [compound 227, N-cyclopentyl-4-methanesulfonylamino-1H-pyrzole-3-carboxamide]		274	
CC1(C)C2CC[C@@]1(CS(=O)(=O)Nc1c[nH]nc1C(=O)NC1CCCC1)C(=O)C2 [compound 240]		208	
CC1(C)C2CC[C@@]1(CS(=O)(=O)Nc1c[nH]nc1C(=O)NCCc1ccccc1)C(=O)C2 [compound 305]		< 100	
